Columns and labels:
[1] = tested on: C6 glioma cells injected in rat striata; assay: C6 rat glioma model, tumor volume and histology; type: in vivo; conditions: for reduction of tumor volume compared to vehicle: 21 d
Experimental: Spraque-Dawley rats (Charles River Laboratories, Sulzfeld, Germany), weighting 200-250 g were used. Animals were housed in groups of two under standard conditions at a temperature of 22° C.±1 and a 12-h light-dark cycle with free access to food and water. Experiments were carried out in accordance with the declaration of Helsinki and were approved by the local ethical committee for animal experiments. Before implantation, 85-90% confluent C6 cells were trypsinized, rinsed with DMEM+10% fetal calf serum, and centrifuged at 1000 rpm for 4 min. The cell pellet was resuspended in DMEM and placed on ice. Concentration of viable cells was adjusted to 1×10^5 cells/1 μl of DMEM. Each rat was anesthetized and placed in a stereotactic frame (David Kopf Instruments, Tujunga, Calif., USA), a hole was drilled at AP 0.0, R -3.0 relative to bregma according to the stereotaxic atlas of […], 1963). Tumor cells were injected at a rate of 0.5 μl/s, using a 2 μl Hamilton (#2701) syringe (Reno, Nev., USA) with a 26 s-gauge needle mounted on a stereotactic holder at a depth of 5 mm. […] For intracerebral administration of pio/vehicle (DMSO), the tip of an Alzet-brain-infusion-kit (Cupertino, Calif., USA) was placed in a depth of 5 mm, connected to a 2ML4 Alzet osmotic pump (Cupertino, Calif., USA). Drug administration began 4 h after surgery. […] The pumps were filled with 20 μM pio solved in PBS or vehicle (DMSO, 0.1% final concentration) solved in PBS. Animals were randomly distributed in two groups, treated with pio filled pumps (n=26) or vehicle filled pumps (n=26). Thereafter skull was cleaned and the incision sutured. […] Control animals received Purina chow without additions. Rats were allowed free access to the chow. Tumors were allowed to grow and animals were weighed daily. […] Brains were serially sectioned at 10 μm using a cryostat (Leica, Jung CMI800, Germany). Sections for hematoxylin-eosin (HE)-staining were placed onto uncoated slides. Sections intended for use in immunoreactivity assays were placed onto coded slides (Fisher finest, premium; Houston, Tex., USA). Sections were routinely HE-stained for histomorphological assessment and measurement of tumor volume as well as immunohistochemically processed for Ki-67-, BAX, cleaved caspase-3-expression, MMP9, CS-56 and BrdU-incorporation. Images of HE-stained sections containing the tumor were captured with a SPOT model 1.3 camera (Diagnostic Instruments, Inc., Sterling Heights, Mich., USA) using a 1× objective and images processed using NIH Image 1.62 software (Bethesda, Md., USA). The tumor area of each section was manually outlined by a blinded observer using the freehand selection tool to measure tumor area in mm^2. The area was then multiplied by the section thickness (10 μm section, 10 sections/HE stain) to achieve a section volume measurement. Volumes of all sections were added to calculate the total volume of each tumor. Tumor volumes for five/six animals of every group were measured.

[2] = tested on: Bax; assay: Western blot of Bax in whole-hemisphere lysates, C6 rat glioma model; type: in vivo
Experimental: (§1) For western-blot analysis, tumor-containing hemispheres were homogenized in Tris-HCl [50 mM Tris-HCl pH8, 120 mM NaCl, 5 mM EDTA, 0.5% (v/v) NP-40, […] phenylmethylsulfonyl fluoride (PMSF)] and sonicated. Homogenates were collected by centrifugation (15 min 11000 g. 4° C.) and protein concentration in the supernatant was determined using the Bio-Rad Protein Assay (Biorad, Munich, Germany). Lysates (20-40 μg) were separated on a 7% (w/v) sodium dodecyl sulfate (SDS)-polyacrylamide gel under reducing conditions and transferred to a PVDF membrane (Millipore, Bedford, Mass., USA). Non-specific binding was blocked by incubation with 5% (w/v) skimmed milk in TBS for 2 h. Following incubation with the primary antibody overnight at 4° C. [rabbit anti-BAX 1:1000, rabbit anti-cleaved caspase-3 1:1000, mouse […] 1:1000, goat anti-MMP-9 1:1000 in TBS containing 0.1% (v/v) Tween 20] membranes were washed three times in TBS/Tween for 5 min and subsequently incubated for 120 min in TBS/Tween containing secondary peroxidase-conjugated antibody at room temperature (anti-rabbit 1:1000, anti-mouse 1:1000; anti-goat 1:1000 respectively). Signals were visualized by chemoluminescence (Pierce, Rockford, Ill., USA) and band intensities were quantified with NIH Image 1.62 software (Bethesda, Md., USA).

[3] = tested on: MMP-9; assay: MMP-9 expression in vivo (western blot, immunohistochemistry); set-up: species or system rat
Experimental: as §1, with “Md., USA). Frozen brain sections were first blocked with 5% normal goat serum or normal horse serum in PBS and subsequently incubated with rabbit anti-Ki-67 antibody (1:200 dilution), mouse anti-CS-56 (1:100 dilution), goat anti-MMP-9 (1:100 dilution) or rabbit anti-cleaved caspase-3 antibody (1:200 dilution) at 4° C. overnight. Sections were washed extensively with PBS before incubation with secondary antibodies. Incubation was carried at room temperature for 1 h. After washing with PBS three times, stained slides were mounted with PBS/glycerol (1:1) and viewed under a fluorescent microscope (Leica, Germany).” for “Md., USA).”

SMILES: CCc1ccc(CCOc2ccc(CC3SC(=O)NC3=O)cc2)nc1 (stereo not drawn) [pioglitazone, 5-[4-[2-(5-ethylpyridin-2-yl)ethoxyl]benzyl]thiazolidine-2,4-dione]
- tumor volume compared to vehicle, in words ([1]; intracerebral, 3 and 6 days): no significant differences
- tumor volume compared to vehicle, in words ([1]; intracerebral, 9, 14 and 21 days): decreased significantly
- reduction of tumor volume compared to vehicle ([1]; intracerebral, pio 20 μM via osmotic pump): 83%
- reduction of tumor volume compared to vehicle ([1]; oral treatment (in chow)): 77%
- reduction of tumor volume compared to vehicle ([1]; oral treatment (in chow), listed as pio): 76.9%
- histological evaluation of tumor margins and invasiveness ([1]; pio treated in vivo gliomas): more defined tumor margins and decreased invasiveness
- Bax-protein levels versus vehicle (densitometry), in words ([2]; 3, 6, 9 and 14 d): significant difference
- induction of Bax protein (densitometry) ([2]; 6 d of pio treatment): 1.66 fold
- upregulation of proapoptotic proteins ([2]; after 21 days of treatment (data not shown)): not associated with an upregulation of proapoptotic proteins
- MMP-9 positive staining (immunoreactivity) ([3]; tumor margins and surrounding healthy brain tissue): reduced MMP-9 positive staining
- MMP-9 expression (western blot) ([3]; whole-hemisphere lysates): almost completely suppressed
- reduction of MMP-9 expression (densitometry) ([3]; whole-hemisphere lysates): 81%
